Patent publication US20100303934A1, “METHODS AND COMPOSITIONS FOR NERVE REGENERATION” (Oregon Health & Science University, priority 2004, published 2010)

Tests used:
[1] = test system: SHSY5Y neuroblastoma cells; assay: Protection against hydrogen peroxide induced toxicity (CellTiter Blue / LDH); assay type: cell-based, human; settings: positive control, concentration not given; H2O2 125 to 500 μM
Protocol: SHSY5Y neuroblastoma cells were grown in DMEM/F12 medium (from Gibco) containing 10% fetal calf serum (FCS), 100 ug/ml streptomycin sulphate, 100 U/ml penicillin G in a humidified air/5% CO2 chamber at 37 C. The following method was followed: Day1. Plate SHSY5Y cells on 24-well plate at 100,000/well Day4. Remove old medium, add fresh medium with 10 ng/ml NGF. Day5. Add GK, GKW or EGCG (epigallocatechin gallate; a known antioxidant), overnight. Day6. Remove old medium (containing test substances), add fresh medium (2% FCS) with 10 ng/ml NGF. Treat cells with or without H2O2, for 2-3 hours. Remove medium and H2O2, wash 1× with fresh medium with NGF, add fresh medium (2% FCS) with NGF again, incubate overnight. Day7. Harvest supernatant for LDH assay. Add fresh medium and CellTiter Blue reagent (from Promega, containing resazurin) into each well, incubate for 2 hours, read fluorescence under the Fluorometer. @ 560 nm EX/590 nm EM, cut off 590 nm.

[2] = test system: SH-SY5Y human neuroblastoma cells; assay: Neurite elongation (neurite outgrowth length) assay in SH-SY5Y cells in the presence of NGF; assay type: cell-based; settings: for Activity in the neurite elongation assay (FIG. 17): tested at 1 μm, in the presence of NGF; for Process elongation in micrographs (FIGS. 3-10): SH-SY5Y cells at 168 hours, with NGF
Protocol: SH-SY5Y human neuroblastoma cells were maintained in DMEM medium (GIBCO) supplemented with 10% fetal calf serum (SIGMA), 50 IU/mL penicillin, and […] streptomycin (GIBCO) at 37° C. in 7% CO2. Cells were plated in six-well plates at 1×10^6 cells/well and treated with […] aphidicolin (SIGMA). At five days, cells were washed, treated with nerve growth factor (NGF) (Boehringer Mannheim, Indianapolis, Ind.) at 10 ng/mL (to induce process outgrowth) in the presence or absence of the Centella asiatica extract and extract fractions (100 μg/mL). […] All experiments were run in duplicate wells and repeated at least twice for reproducibility.
Neurite lengths were measured on photographic prints using a SummaSketch III digitizing tablet connected with Bioquant Classic 95 software (R&M Biometrics, Nashville, Term.); only those processes greater than two times the cell body length were measured. […] Histograms were compared using a Mann-Whitney U test, which makes no assumptions about the shape of the distribution.

| Molecule | Activity in the neurite elongation assay (FIG. 17) [2] | Process elongation in micrographs (FIGS. 3-10) [2] | other results |
| --- | --- | --- | --- |
| O=C(O[C@@H]1Cc2c(O)cc(O)cc2O[C@@H]1c1cc(O)c(O)c(O)c1)c1cc(O)c(O)c(O)c1 [EGCG, epigallocatechin gallate] |  |  | Protection against H2O2 toxicity [1]: protective |
| C[C@H]1[C@H](C)CC[C@]2(C(=O)O)CC[C@]3(C)C(=CC[C@@H]4[C@@]5(C)C[C@@H](O)[C@H](O)[C@@](C)(CO)[C@@H]5[C@H](O)C[C@]43C)[C@H]12 [madecassic acid] | active |  |  |
| C=CC[C@@H]1/C=C(\C)C[C@H](C)C[C@H](OC)[C@H]2O[C@@](O)(C(=O)C(=O)N3CCCC[C@H]3C(=O)O[C@H](/C(C)=C/[C@@H]3CC[C@@H](O)[C@H](OC)C3)[C@H](C)[C@@H](O)CC1=O)[C@H](C)C[C@@H]2OC [FK506, reference compound] |  |  | Neurite elongation activity in the absence of NGF ([2]; absence of NGF): no activity |
| madecassoside | not active |  |  |
| C[C@H]1[C@H](C)CC[C@]2(C(=O)O)CC[C@]3(C)C(=CC[C@@H]4[C@@]5(C)C[C@@H](O)[C@H](O)[C@@](C)(CO)[C@@H]5CC[C@]43C)[C@H]12 [asiatic acid] | active | markedly increased | Activity of AA in the presence of the MEK inhibitor PD 098059 ([2]; FIG. 10, 168 hours): prevented; Stimulation of neurite outgrowth elongation ([2]; concentration of 104 (0.5 μg/mL)): considerable stimulation |
| NGF: nerve growth factor (Boehringer Mannheim), 10 ng/mL, used to induce process outgrowth (protein, UniProt P01139 122-241, looked up, Beta-nerve growth factor, nerve growth factor (Boehringer Mannheim), 10 ng/mL, used to induce process outgrowth) Beta-nerve growth factor: SSTHPVFHMGEFSVCDSVSVWVGDKTTATDIKGKEVTVLAEVNINNSVFRQYFFETKCRASNPVESGCRGIDSKHWNSYCTTTHTFVKALTTDEKQAAWRFIRIDTACVCVLSRKATRRG |  | demonstrate process elongation | Mean neurite length (μm) at 168 h ([2]; test substance 100 μg/mL, in the presence of NGF (10 ng/mL), 168 h): 115 μm |
